# Tests used:
# [1] = tested on: S. aureus CF9A-L; experiment: MIC, microdilution in CAMHB 24 h; assay type: cell-based, Staphylococcus aureus; details: CF9A-L
# [2] = tested on: S. aureus ATCC 29213; experiment: Checkerboard assay, aminoglycoside and tomatidine; assay type: cell-based, Staphylococcus aureus; details: for Aminoglycoside MIC: checkerboard
# Procedure: This checkerboard protocol (Eliopoulos and Moellering, 1996) was conducted by a microdilution method similar to that use for standard MICs determination. In 96 wells plates, antibiotics were loaded at a 4× concentration (where X is the maximal tested concentration) in well A1 and at a 2× concentration in the others wells of the column 1. Antibiotics were serially diluted 1:1 from the column 2 to column 10. […] Wells A12, B12, […] are positive untreated controls whereas wells […] are negative non-inoculated controls. […] The FIC index was calculated as follow (Eliopoulos and Moellering, 1996): FIC […]/MICB, where A and B are MICs of compounds A and B in combination and where MICA and MICB are the MICs of compound A alone and of compound B alone, respectively, and FICA and FICB are the FICs of compound A and of compound B, respectively.
# [3] = tested on: S. aureus CF7A-L; experiment: MIC, microdilution in CAMHB 24 h; assay type: cell-based, Staphylococcus aureus; details: CF7A-L
# [4] = tested on: S. aureus Sa228c; experiment: MIC, microdilution in CAMHB 24 h; assay type: cell-based, Staphylococcus aureus; details: Sa228c, 8 μg/ml of tomatidine
# [5] = tested on: S. aureus CF6B-L; experiment: MIC, microdilution in CAMHB 24 h; assay type: cell-based, Staphylococcus aureus; details: CF6B-L
# [6] = tested on: S. aureus 8325-4; experiment: MIC, microdilution in CAMHB 24 h; assay type: cell-based, Staphylococcus aureus; details: 8325-4
# [7] = tested on: S. aureus CF4B-L; experiment: MIC, microdilution in CAMHB 24 h; assay type: cell-based, Staphylococcus aureus; details: CF4B-L
# [8] = tested on: S. aureus SHY97-3906; experiment: MIC, microdilution in CAMHB 24 h; assay type: cell-based, Staphylococcus aureus
# [9] = tested on: S. aureus Mu50; experiment: MIC, microdilution in CAMHB 24 h; assay type: cell-based, Staphylococcus aureus
# [10] = tested on: S. aureus Newman; experiment: MIC, microdilution in CAMHB 24 h; assay type: cell-based, Staphylococcus aureus; details: Newman
# [11] = tested on: S. aureus ATCC 29213; experiment: MIC, microdilution in CAMHB 24 h, with or without tomatidine/compound; assay type: cell-based, Staphylococcus aureus; details: for MIC −TO: absence of tomatidine
# [12] = tested on: S. aureus ATCC 29213; experiment: Time-kill experiments, aminoglycoside alone or with tomatidine (FIGS. 8-10)
# [13] = tested on: S. aureus CF8E-L; experiment: MIC, microdilution in CAMHB 24 h; assay type: cell-based, Staphylococcus aureus; details: CF8E-L
# [14] = tested on: S. aureus CF07-L; experiment: MIC, microdilution in CAMHB 24 h; assay type: cell-based, Staphylococcus aureus; details: CF07-L
# [15] = tested on: S. aureus CF1A-L; experiment: MIC, microdilution in CAMHB 24 h; assay type: cell-based, Staphylococcus aureus; details: CF1A-L
# [16] = tested on: S. aureus CF35A-L; experiment: MIC, microdilution in CAMHB 24 h; assay type: cell-based, Staphylococcus aureus; details: CF35A-L
# [17] = tested on: S. aureus ATCC BAA-41; experiment: MIC, microdilution in CAMHB 24 h; assay type: cell-based, Staphylococcus aureus
# [18] = tested on: S. aureus Sa220c; experiment: MIC, microdilution in CAMHB 24 h; assay type: cell-based, Staphylococcus aureus; details: Sa220c
# [19] = ant(4′)-Ia, 8 μg/ml of tomatidine
# [20] = ant(4′)-Ia, absence of tomatidine
# [21] = SHY-3906, 8 μg/ml of tomatidine
# [22] = ATCC 29123, 8 μg/ml of tomatidine
substance,measurement,setting,value
gentamicin,MIC +TO,[1]; [19],0.06 to 0.12 µg/mL
same,MIC −TO,[1]; [20],0.5 to 1 µg/mL
same,Fold (−TO/+TO),[1]; 8 μg/ml of tomatidine,4-8 fold
same,MIC,"[1]; Human (CF lungs), MRSA",0.5 to 1 µg/mL
same,FIC index,"[2]; aminoglycoside with tomatidine, tomatidine MIC considered 32 μg/ml, values overestimated",≦0.116
same,Aminoglycoside MIC,[2]; tomatidine 0 μg/ml,0.5 to 1 µg/mL
same,Aminoglycoside MIC,[2]; tomatidine 0.06 μg/ml,0.25 µg/mL
same,Aminoglycoside MIC,[2]; tomatidine 0.12 μg/ml,0.06 to 0.25 µg/mL
same,Aminoglycoside MIC,[2]; tomatidine 0.25 μg/ml,0.06 µg/mL
same,Aminoglycoside MIC,[2]; tomatidine 0.5 μg/ml,0.06 µg/mL
same,Aminoglycoside MIC,[2]; tomatidine 1 μg/ml,0.03 to 0.06 µg/mL
same,Aminoglycoside MIC,[2]; tomatidine 2 μg/ml,0.06 to 0.12 µg/mL
same,Aminoglycoside MIC,[2]; tomatidine 4 μg/ml,0.03 to 0.12 µg/mL
same,Aminoglycoside MIC,[2]; tomatidine 8 μg/ml,0.03 to 0.06 µg/mL
same,MIC +TO,[3]; [19],0.12 to 0.25 µg/mL
same,MIC −TO,[3]; [20],0.5 to 1 µg/mL
same,Fold (−TO/+TO),[3]; 8 μg/ml of tomatidine,2-8 fold
same,MIC,"[3]; Human (CF lungs), MRSA",0.5 to 1 µg/mL
same,MIC +TO,"[4]; aac(6′)-aph(2″), ant(4′)-Ia",8 to 16 µg/mL
same,Fold (−TO/+TO),[4],8 fold
same,MIC +TO,"[5]; aac(6′)-aph(2″), 8 μg/ml of tomatidine",16 to 32 µg/mL
same,MIC −TO,"[5]; aac(6′)-aph(2″), absence of tomatidine",128 to 256 µg/mL
same,Fold (−TO/+TO),[5]; 8 μg/ml of tomatidine,4-8 fold
same,MIC,[5]; Human (CF lungs),128-256 (R) μg/ml
same,Fold (−TO/+TO),[6]; 8 μg/ml of tomatidine,4 fold
same,MIC +TO,[6]; 8 μg/ml of tomatidine,0.03 to 0.06 µg/mL
same,MIC,[6]; Laboratory strain,0.12 to 0.25 µg/mL
same,MIC −TO,[6]; absence of tomatidine,0.12 to 0.25 µg/mL
same,Fold (−TO/+TO),[7]; 8 μg/ml of tomatidine,4-8 fold
same,MIC +TO,[7]; 8 μg/ml of tomatidine,0.06 to 0.12 µg/mL
same,MIC,[7]; Human (CF lungs),0.5 µg/mL
same,MIC −TO,[7]; absence of tomatidine,0.5 µg/mL
same,MIC,"[8]; SHY97-3906, Cow (mastitis)",0.25 µg/mL
same,Fold (−TO/+TO),[8]; [21],4-8 fold
same,MIC +TO,[8]; [21],0.03 to 0.06 µg/mL
same,MIC −TO,"[8]; SHY-3906, absence of tomatidine",0.25 µg/mL
same,MIC +TO,"[9]; Mu50, aac(6′)-aph(2″), ant(4′)-Ia, 8 μg/ml of tomatidine",16 µg/mL
same,MIC −TO,"[9]; Mu50, aac(6′)-aph(2″), ant(4′)-Ia, absence of tomatidine",128 µg/mL
same,Fold (−TO/+TO),"[9]; Mu50, 8 μg/ml of tomatidine",8 fold
same,MIC,"[9]; Mu50, Human (SSTI), MRSA, VISA",128 (R) μg/ml
same,Fold (−TO/+TO),[10]; 8 μg/ml of tomatidine,8-16 fold
same,MIC +TO,[10]; 8 μg/ml of tomatidine,0.06 µg/mL
same,MIC,[10]; Human (Osteo),0.5 to 1 µg/mL
same,MIC −TO,[10]; absence of tomatidine,0.5 to 1 µg/mL
same,Fold (−TO/+TO),[11]; [22],8-32 fold
same,MIC +TO,[11]; [22],0.03 to 0.06 µg/mL
same,MIC −TO,[11]; ATCC 29123,0.5 to 1 µg/mL
same,MIC,"[11]; ATCC 29213, Human (SSTI)",0.5 to 1 µg/mL
same,MIC −TO,[11]; ATCC 29213,0.5-1^ μg/ml
same,MIC +TO,"[11]; ATCC 29213, presence of tomatidine at 8 μg/ml",0.03 to 0.06 µg/mL
same,Fold (−TO/+TO),"[11]; ATCC 29213, tomatidine at 8 μg/ml",8-32 fold
same,time-kill activity alone,"[12]; alone at ≧1×MIC (1 μg/ml), regrowth observed within 24 h, FIG. 9",bactericidal
same,time-kill activity of combination,"[12]; gentamicin 0.06 μg/ml combined with tomatidine 8, FIG. 8",strong bactericidal activity
same,Fold (−TO/+TO),[13]; 8 μg/ml of tomatidine,2-4 fold
same,MIC +TO,[13]; 8 μg/ml of tomatidine,0.25 to 0.5 µg/mL
same,MIC,[13]; Human (CF lungs),1 µg/mL
same,MIC −TO,[13]; absence of tomatidine,1 µg/mL
same,Fold (−TO/+TO),[14]; 8 μg/ml of tomatidine,4-8 fold
same,MIC +TO,[14]; 8 μg/ml of tomatidine,0.06 to 0.25 µg/mL
same,MIC,[14]; Human (CF lungs),0.5 to 1 µg/mL
same,MIC −TO,[14]; absence of tomatidine,0.5 to 1 µg/mL
same,Fold (−TO/+TO),[15]; 8 μg/ml of tomatidine,4-8 fold
same,MIC +TO,[15]; 8 μg/ml of tomatidine,0.12 µg/mL
same,MIC,[15]; Human (CF lungs),0.5 to 1 µg/mL
same,MIC −TO,[15]; absence of tomatidine,0.5 to 1 µg/mL
same,Fold (−TO/+TO),[16]; 8 μg/ml of tomatidine,8 fold
same,MIC +TO,[16]; 8 μg/ml of tomatidine,0.06 to 0.12 µg/mL
same,MIC,"[16]; Human (CF lungs), MRSA",0.5 to 1 µg/mL
same,MIC −TO,[16]; absence of tomatidine,0.5 to 1 µg/mL
same,MIC +TO,"[17]; ATCC BAA-41, ant(4′)-Ia, 8 μg/ml of tomatidine",0.12 to 0.25 µg/mL
same,MIC −TO,"[17]; ATCC BAA-41, ant(4′)-Ia, absence of tomatidine",0.5 µg/mL
same,Fold (−TO/+TO),"[17]; ATCC BAA-41, 8 μg/ml of tomatidine",2-4 fold
same,MIC,"[17]; ATCC BAA-41, Human (HA), MRSA",0.5 µg/mL
same,Fold (−TO/+TO),[18]; 8 μg/ml of tomatidine,4-8 fold
same,MIC +TO,[18]; 8 μg/ml of tomatidine,0.06 to 0.12 µg/mL
same,MIC,"[18]; Human (SSTI), MRSA",0.5 µg/mL
same,MIC −TO,[18]; absence of tomatidine,0.5 µg/mL

# — patent publication US9457033B2, “Steroid alkaloids and uses thereof as antimicrobial agents against electron transport-deficient microbes and as potentiators for antimicrobial agents against pathogenic bacteria” (priority 2011, dated 2016)
